Experimental data as given in patent publication US3973021A, “2-[2-(5-Nitro-2-furyl)vinyl]-4-(phydroxyanilino)quinazoline as a bactericide” (Diamond Shamrock Corporation, priority 1975, dated 1976).
Positions of bridges follow the written chain, without caps; N, C: chain ends. Non-standard residues stand in square brackets, D forms with d. Residues, ends and D or L forms follow the SMILES beside them. *: point of attachment. Ileψ(thiazoline)Cys = CC[C@H](C)[C@H](N)C1=N[C@H](C(=O)*)CS1; dOrn = NCCC[C@@H](N)C(=O)O

Assays:
[1] = Example XI: 4 week chick feeding test, five replicates; format: in vivo, broiler cross chicks; conditions: for feed efficiency (in words) / growth rate (in words): Table V
From the text: (§1) This example compares growth promotion activity of the product of Example I with other growth promotants at a concentration of 25 g/T in the Basal Ration described in Example VII. The other growth promotants include the product described in Example I of U.S. Pat. No. 3,542,784 -- Burch and quinoxaline-1,4-dioxide. Day old broiler cross chicks were weight equalized into groups of 8 chicks each, and four replicates of 8 chicks each were fed the experimental rations over a 4 week period.
The growth promotion tests described in Example X were repeated with the exception that fives replicates of 8 chicks each were fed the formulations described in Table V for four weeks.

[2] = Example VIII: 4 week chick feeding test at low levels; format: in vivo, broiler cross chicks
From the text: (§2) Day old broiler cross chicks were weight equalized into groups of 8 chicks each and were placed in battery brooders. The 32 chick treatment groups (4 replicates) were fed one of the five rations described below for a four week period. Weekly measurements of body weights and feed consumption were made by replicate, and these measurements used to calculate weight gain and feed efficiency.
The basal ration was the basal ration used in Example VII above. The remaining five rations wer obtained by mixing the indicated quantities of bacitracin (4 g/T), chlortetracycline (10 g/T), product of Example I (10 g/T), and product of Example II of U.S. Pat. No. 3,542,784 -- Burch (10 g/T) as growth promotants with the basal ration.

[3] = Example VII: 4 week chick feeding test, weight gain and feed efficiency; format: in vivo, broiler cross chicks; conditions: analysis of variance; over Basal Ration + Bacitracin
From the text: One hundred twenty day-old broiler cross chicks were weight equalized into 15 groups of 8 chicks each and placed in battery brooders. The 40 chick treatment groups (5 replicates) were fed the one of the three rations described below for a four week period. weekly measurements of body weights and feed consumption were made by replicate, and these measurements used to calculate weight gain and feed efficiency.
The commercial type broiler starter basal ration which was used in this study was designated as the Basal Ration, and had the following composition:
The preceding basal ration was mixed with bacitracin at a level of 4 g/T as the only growth stimulant to simulate commercial practice. This mixture was designated as the Basal Ration + Bacitracin (4 g/T) and constituted the negative control in this study.
A second ration was prepared by fortifying the Basal Ration + bacitracin described above with the Product from Example I above at a level of 200 g/T, and was designated as Basal Ration + Bacitracin + Product of Example I (200 g/T). A third ration was prepared by fortifying the Basal Ration + bacitracin described above with chlortetracycline (CTC) at a level of 200 g/T, and was designated as Basal Ration + Bacitracin + Chlortetracycline (200 g/T).
The term "growth promotion" is used herein to describe the beneficial effect of a compound in eliciting a more rapid of weight gain when compared to the weight gain of control animals not fed the compound. "Feed efficiency" is a term regularly used in animal husbandry and is a measure of the pounds of feed required to produce a pound of gain in the weight of the animal. A lower mathmatical value for feed efficiency reflects improved performance.

[4] = Example XIII: 6 week swine feeding test, growth rate and feed efficiency; format: in vivo, weanling pigs; conditions: Table VIII
From the text: Thirty-six weanling pigs weighing approximately thirty pounds each in good physical condition and originating from a common source were used in these tests. The pigs were allocated into sex and weight equalized pens of six pigs each. A one week period was allowed for acclimatization before testing. Three replicates of six pigs were fed the basal ration described below, and three replicates were fed the same basal ration supplemented with 25 g/T of the product of Example I.
The basal ration was a 17% commercial corn-soya pelletized formulation which was free of antibiotic and drug components. Composition of the basal ration formulation was: […]
The rations were offered ad libitum from six bushel self-feeders with a continuous supply of fresh water. The same ration formulations were used throughout the six week feeding period. Individual pig weighing were made after 0,2,4 and 6 (termination) week periods. Feed consumption records were kept on a pen basis, with feed efficiency conversion being compiled at the end of the 2nd, 4th and 6th (termination) week of feeding. Complete morbidity and mortality records were kept.

[5] = Example XII: 4 week chick feeding test, first set (Table VI); format: in vivo, broiler cross chicks; conditions: Table VI
From the text: as §1
The growth promotion tests described in Example X were repeated with the additional testing the products of Examples II and III.

[6] = Example IX: chick feeding test, titration dosage; format: in vivo, broiler cross chicks
From the text: as §2
The concentrations used in this test were 6.25, 12.5, 25, 50, 100, 200 and 400 g of the Product of Example I per ton of the Basal Ration described in Example VII above. The same number and size chick treatment groups were used in this test as in Example VIII above.

[7] = Example XII: 4 week chick feeding test, repeat with five replicates (Table VII); format: in vivo, broiler cross chicks; conditions: Table VII
[8] = Example X: 4 week chick feeding test, 25 g/T; format: in vivo, broiler cross chicks
From the text: as §1

[9] = tested on: S. faecalis, E. rhusiopathiae, B. bronchiseptica, S. agalactiae, Streptococcus group E and Vibrio coli; test: Bactericide test, comparison with chlortetracycline; format: cell-based; conditions: Table A
From the text: Test formulations were examined for bactericidal and/or bacteriostatic activity against the test organisms shown in Tables A and B. These organisms were chosen as being representative of commercially important pathogens affecting animal agriculture. The antibiotic chlortetracycline was chosen as a positive control, since it has a broad spectrum of activity against a large number of organisms, and its activity can be used for comparative purposes.
Basic test formulations of the product of Examples I, II, III, and of chlortetracycline were prepared by dissolving 16 mg (0.016 g) in 2.0 ml of stock emulsifier solution (0.25% Triton X-155 in acetone by volume) and making each solution up to 50 ml with deionized water. The concentration of the test compound in the basic formulation was 320 ppm. Lower concentrations of the test compound were obtained by diluting the basic formulation with a 4% solution of the stock emulsifier in deionized water so that each dilution in the series differed only in test compound content.
Nutrient-tryptic soy agar (NTA) consisting of 2.0% Difco Bactoagar 0.8% nutrient broth (Difco), and 0.5% tryptic soy broth (Difco) was prepared and sterilized by autoclaving. A 2 ml aliquot of each test formulation was added to 8 ml of molten NTA. This mixture was then plated in a sterile polystyrene petri dish (100 × 15 mm). After the agar was set, suspensions of each of the test organisms were simultaneously streaked onto the surface of the agar. The inoculated plates were incubated for 48 hr. at 28°C. The inhibition of growth of each organism was rated by visual comparison with the organism developing on non-treated agar. Growth inhibition reported as percent control was rated in three categories as follows: 0% control, growth equivalent to that on non-treated agar; 50% control, sparse development and separated colonies; 100% control, no visible growth or development of colonies.

Structure (SMILES): CC[C@H](C)[C@H](N)C1=N[C@H](C(=O)N[C@@H](CC(C)C)C(=O)N[C@H](CCC(=O)O)C(=O)N[C@H](C(=O)N[C@H]2CCCCNC(=O)[C@H](CC(N)=O)NC(=O)[C@@H](CC(=O)O)NC(=O)[C@H](Cc3cnc[nH]3)NC(=O)[C@@H](Cc3ccccc3)NC(=O)[C@H]([C@@H](C)CC)NC(=O)[C@@H](CCCN)NC2=O)[C@@H](C)CC)CS1 [Bacitracin] ({Ileψ(thiazoline)Cys}-L[dE]IK[dOrn]I[dF]H[dD]N; lactam 4-C)
- Improved Response Over Basal Ration: Feed Efficiency ([1]; 25g/T): +3.1%
- Improved Response Over Basal Ration: Gain ([1]; 25g/T): +1.2%
- feed efficiency (in words) [1]: moderate improvements in feed efficiencies
- growth rate (in words) [1]: slight improvements in growth rates
- Improved Response Over Basal Ration: Feed Efficiency ([2]; 4 g/T in Basal Ration): +1.2%
- Improved Response Over Basal Ration: Gain ([2]; 4 g/T in Basal Ration): -2.3%

Structure (SMILES): CN(C)[C@@H]1C(O)=C(C(N)=O)C(=O)[C@@]2(O)C(O)=C3C(=O)c4c(O)ccc(Cl)c4[C@@](C)(O)[C@H]3C[C@@H]12 [Chlortetracycline, reference compound]
- statistical significance of improved feed efficiencies [3]: significant at the 99.9% level of probability
- statistical significance of improved weight gains [3]: significant at the 99.5% level of probability
- feed efficiency (in words) [1]: moderate improvements in feed efficiencies
- growth rate (in words) [1]: slight improvements in growth rates

Structure (SMILES): O=[N+]([O-])c1ccc(C=Cc2nc(Nc3ccc(O)cc3)c3ccccc3n2)o1 [Example I, 2-[2-(5-nitro-2-furyl)vinyl]-4-(p-hydroxyanilino)quinazoline]
- feed efficiency (in words) [4]: enhanced feed efficiency
- growth (in words) [4]: very substantial growth improvement
- statistical significance of improved feed efficiencies [3]: significant at the 99.9% level of probability
- statistical significance of improved weight gains [3]: significant at the 99.5% level of probability
- growth rate / feed efficiency response (in words) [5]: moderate improvement in production parameters
- combined effect with bacitracin (in words) ([1]; 25g/T + 25g/T bacitracin): synergistic effects
- Improved Response Over Basal Ration: Feed Efficiency ([1]; 25g/T + Bacitracin (25g/T)): +7.5%
- Improved Response Over Basal Ration: Gain ([1]; 25g/T + Bacitracin (25g/T)): +4.6%
- feed efficiency (in words) [1]: substantial improvement in feed efficiency
- growth rate (in words) [1]: moderate improvement in growth rate
- growth promotion (in words) ([6]; 12.5 g/T): noticeable growth promotion
- weight gain and feed efficiency (in words) ([6]; 25 and 50 g/T): improvements in weight gain and feed efficiency
- weight gain (in words) ([6]; 100 g/T): absence of weight gain improvement
- improvement (in words) ([6]; 200 g/T): substantial improvements
- optimum concentration ([6]; economics and efficacy): 25 g/T
- growth rate / feed efficiency response (in words) [7]: moderate improvement in production parameters
- Average 4 Week Performance: Feed Efficiency ([8]; 25g/T): 1.503
- Improved Response Over Basal Ration: Feed Efficiency ([8]; 25g/T): +3.2%
- Improved Response Over Basal Ration: Gain ([8]; 25g/T): +6.2%
- growth rate and feed efficiency response (in words) ([8]; 25 g/T, Table IV): strongest response in growth rate and feed efficiency
- effectiveness relative to chlortetracycline (in words) [9]: considerably more effective
- growth promotion (in words) ([2]; Table II, compared with other growth promotants): greater growth promotion than any of the other growth promotants

Structure (SMILES): O=[N+]([O-])c1ccc(C=Cc2nc(Nc3cccc(O)c3)c3ccccc3n2)o1 [Example II, 2-[2-(5-nitro-2-furyl)vinyl]-4-(m-hydroxyanilino)quinazoline]
- growth rate / feed efficiency response (in words) [5]: moderate improvements
- effectiveness relative to chlortetracycline (in words) [9]: considerably more effective

Structure (SMILES): O=[N+]([O-])c1ccc(C=Cc2nc(Nc3ccccc3)c3ccccc3n2)o1 [Example IV, 2-[2-(5-nitro-2-furyl)vinyl]-4-anilinoquinazoline]
- effectiveness relative to chlortetracycline (in words) [9]: considerably more effective
